Results: ChEMBL document CHEMBL5728557, “Azetidine derivative, preparation method therefor, and use thereof” (2021)

Columns and labels:
[1] = biological target: Voltage-gated inwardly rectifying potassium channel KCNH2 (Homo sapiens, UniProt Q12809); assay: Safety Test: The effect of test compounds on hERG potassium channel were determined using Predictor hERG Fluorescence Polarization Assay at concentrations of 3, 10, and 30 μM.
Cytochrome P450 1A2 = biological target: T1, Cytochrome P450 1A2 (Homo sapiens, UniProt P05177); assay: (§1) As such, the compound of the present invention has no significant inhibitory effect on CYP1A2, CYP2D6 and CYP3A4, and thus has no safety issue caused by metabolism interactions among different drugs due to inhibition of the enzymes.
T1 sequence (P05177 whole entry): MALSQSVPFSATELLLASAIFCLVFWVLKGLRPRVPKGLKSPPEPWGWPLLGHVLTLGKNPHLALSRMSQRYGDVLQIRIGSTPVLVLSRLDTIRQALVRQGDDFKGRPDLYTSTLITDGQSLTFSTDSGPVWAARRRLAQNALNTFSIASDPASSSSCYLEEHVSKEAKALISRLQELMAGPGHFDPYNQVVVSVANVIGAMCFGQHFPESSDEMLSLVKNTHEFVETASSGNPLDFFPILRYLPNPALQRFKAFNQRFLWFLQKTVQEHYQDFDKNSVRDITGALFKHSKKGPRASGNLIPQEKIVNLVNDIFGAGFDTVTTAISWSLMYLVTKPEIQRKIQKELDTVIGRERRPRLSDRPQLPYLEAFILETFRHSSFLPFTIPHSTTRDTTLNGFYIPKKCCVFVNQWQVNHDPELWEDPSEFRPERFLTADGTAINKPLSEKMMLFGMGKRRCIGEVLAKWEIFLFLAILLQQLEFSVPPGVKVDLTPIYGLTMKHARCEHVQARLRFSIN

CYP3A4 = CYP3A4 (Homo sapiens, UniProt P08684); assay: as §1
CYP3A4, sequence (P08684 whole entry): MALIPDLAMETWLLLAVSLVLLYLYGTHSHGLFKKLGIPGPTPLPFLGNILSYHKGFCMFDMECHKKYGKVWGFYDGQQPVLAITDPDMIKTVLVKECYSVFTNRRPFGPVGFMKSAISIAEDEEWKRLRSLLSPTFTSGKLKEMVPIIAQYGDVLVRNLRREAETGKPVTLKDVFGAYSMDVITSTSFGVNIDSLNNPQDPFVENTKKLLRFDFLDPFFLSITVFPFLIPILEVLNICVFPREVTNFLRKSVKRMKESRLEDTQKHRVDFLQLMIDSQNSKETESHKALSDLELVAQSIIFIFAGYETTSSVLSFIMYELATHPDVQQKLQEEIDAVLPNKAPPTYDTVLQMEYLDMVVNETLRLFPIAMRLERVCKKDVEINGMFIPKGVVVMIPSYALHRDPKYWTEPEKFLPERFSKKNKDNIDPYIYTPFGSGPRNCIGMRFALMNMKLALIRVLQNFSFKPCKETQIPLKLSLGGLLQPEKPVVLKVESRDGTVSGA

CYP2D6 = CYP2D6 (Homo sapiens, UniProt P10635); assay: as §1
CYP2D6, sequence (P10635 whole entry): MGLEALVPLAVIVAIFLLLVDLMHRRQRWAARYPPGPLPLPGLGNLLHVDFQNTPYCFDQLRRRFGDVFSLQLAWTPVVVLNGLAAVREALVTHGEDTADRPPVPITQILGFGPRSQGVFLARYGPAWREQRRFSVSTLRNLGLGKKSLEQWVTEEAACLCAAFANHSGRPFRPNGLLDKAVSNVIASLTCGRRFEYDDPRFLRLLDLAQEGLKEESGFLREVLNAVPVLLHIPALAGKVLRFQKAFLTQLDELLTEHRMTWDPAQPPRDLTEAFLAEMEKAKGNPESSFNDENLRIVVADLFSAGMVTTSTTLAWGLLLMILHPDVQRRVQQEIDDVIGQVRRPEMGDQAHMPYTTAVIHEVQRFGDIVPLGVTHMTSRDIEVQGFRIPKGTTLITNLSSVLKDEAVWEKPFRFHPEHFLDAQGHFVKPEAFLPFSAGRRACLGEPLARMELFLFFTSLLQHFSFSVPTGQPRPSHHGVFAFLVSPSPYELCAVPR

Voltage-gated inwardly rectifying potassium channel KCNH2, sequence (Q12809 whole entry): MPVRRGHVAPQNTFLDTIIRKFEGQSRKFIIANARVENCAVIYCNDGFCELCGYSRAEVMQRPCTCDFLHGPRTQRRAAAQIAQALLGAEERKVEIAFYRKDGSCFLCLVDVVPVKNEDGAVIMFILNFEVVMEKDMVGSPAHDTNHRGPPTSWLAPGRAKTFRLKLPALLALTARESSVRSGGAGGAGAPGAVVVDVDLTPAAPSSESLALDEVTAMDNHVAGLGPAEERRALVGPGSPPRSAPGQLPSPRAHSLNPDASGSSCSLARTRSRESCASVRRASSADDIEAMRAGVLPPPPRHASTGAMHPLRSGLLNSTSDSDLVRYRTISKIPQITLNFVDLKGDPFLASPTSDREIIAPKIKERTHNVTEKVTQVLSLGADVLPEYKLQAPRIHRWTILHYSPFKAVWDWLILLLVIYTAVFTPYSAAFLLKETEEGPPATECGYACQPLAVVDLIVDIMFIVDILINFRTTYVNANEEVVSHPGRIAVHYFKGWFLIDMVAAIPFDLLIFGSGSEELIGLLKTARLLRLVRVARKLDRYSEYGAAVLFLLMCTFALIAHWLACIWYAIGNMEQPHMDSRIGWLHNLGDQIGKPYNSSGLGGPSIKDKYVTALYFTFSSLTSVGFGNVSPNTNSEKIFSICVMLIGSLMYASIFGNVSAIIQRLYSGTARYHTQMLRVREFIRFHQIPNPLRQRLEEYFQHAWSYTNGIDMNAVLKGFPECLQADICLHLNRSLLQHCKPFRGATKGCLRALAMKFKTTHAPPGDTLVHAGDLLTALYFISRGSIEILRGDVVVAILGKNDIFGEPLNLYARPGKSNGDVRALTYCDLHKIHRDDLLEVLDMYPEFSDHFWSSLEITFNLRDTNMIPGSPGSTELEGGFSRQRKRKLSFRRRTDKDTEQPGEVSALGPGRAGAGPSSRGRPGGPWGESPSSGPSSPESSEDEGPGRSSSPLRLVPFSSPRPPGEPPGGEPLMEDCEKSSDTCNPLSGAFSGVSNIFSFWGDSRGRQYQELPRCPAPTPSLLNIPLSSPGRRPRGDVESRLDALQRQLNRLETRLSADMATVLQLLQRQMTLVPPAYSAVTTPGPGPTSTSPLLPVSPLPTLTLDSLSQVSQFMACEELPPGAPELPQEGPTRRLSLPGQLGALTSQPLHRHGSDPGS

Which results are given for `Cc1nn(C2(CC#N)CN(S(=O)(=O)C(C)C)C2)cc1-c1ncnc2[nH]ccc12`?
IC50 [1]: > 30 µM; IC50 (Cytochrome P450 1A2): > 10 µM; IC50 (CYP3A4): > 10 µM; IC50 (CYP2D6): > 10 µM
